Measurements from ChEMBL document CHEMBL1781912, “In search of patterns over physicochemical properties and pharmacological activities for a set of [MCl₂(thiosemicarbazone)] complexes (M=Pt/Pd): support for multiple mechanisms of antichagasic action excluding DNA-bonding in vivo?” (Eur J Med Chem, 2011).

These molecules were tested on Trypanosoma cruzi (assay: Antichagasic activity against Trypanosoma cruzi Tulahuen 2).
Format: functional, organism-based

SMILES	IC50 [µM]
O=[N+]([O-])c1ccc(/C=C/C=N/NC(=S)Nc2ccccc2)o1	3.6
NC(=S)N/N=C/c1ccc([N+](=O)[O-])o1	2.7
NC(=S)N/N=C\C=C\c1ccc([N+](=O)[O-])o1	3.5
CNC(=S)N/N=C/C=C/c1ccc([N+](=O)[O-])o1	4.5
CCNC(=S)N/N=C/c1ccc([N+](=O)[O-])o1	4.9
CCNC(=S)N/N=C/C=C/c1ccc([N+](=O)[O-])o1	4.1
CNC(=S)N/N=C/c1ccc([N+](=O)[O-])o1	5
O=[N+]([O-])c1ccc(/C=N/NC(=S)Nc2ccccc2)o1	> 25
CC1CS(=O)(=O)CCN1/N=C/c1ccc([N+](=O)[O-])o1 (centres undefined) [NIFURTIMOX]	6.1
